Measurements reported in patent US11000033B2, “Ketone or oxime compound, and herbicide” (NISSAN CHEMICAL CORPORATION, priority 2014, dated 2021).

Assays:
Format in all cases: in vivo
beet = experiment: Test Example 4: effect on crop by soil treatment (symbol f); conditions: application herbicide amount 320 g/ha
In short: (§1)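 Steps: fill box with sterilized diluvial soil; sow seed spot-like; cover with ~1.5 cm soil; grow in greenhouse (25° C. to 30° C.).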

corn = experiment: Test Example 4: effect on crop by soil treatment (symbol c); conditions: application herbicide amount 320 g/ha
In short: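 The test used sterilized diluvial soil. Seed was set down in spots and overlaid with about 1.5 cm of soil before growth in a greenhouse kept at 25° C. to 30° C.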

Stellaria media = experiment: Test Example 4: herbicidal effect by soil treatment (symbol P); conditions: application herbicide amount 320 g/ha
In short: (§2)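 Seeds were sown in sterilized diluvial soil, covered with about 1.5 cm of soil, and the soil surface was sprayed with a water-diluted emulsion of the compound at a predetermined rate. Plants grew in a greenhouse at 25° C. to 30° C.; effects were scored visually 3 weeks after application.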

rapeseed = experiment: Test Example 4: effect on crop by soil treatment (symbol g); conditions: application herbicide amount 320 g/ha
In short: as §1

wheat [1] = experiment: Test Example 4: effect on crop by soil treatment (symbol e); conditions: application herbicide amount 320 g/ha
In short: as §1

rice plant = experiment: Test Example 5: effect on crop by foliage application, plastic box (symbol b); conditions: 320 g/ha, 3 weeks after application
In short: (§3)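 Crop and weed seeds sown in spots in sterilized diluvial soil in plastic boxes and covered with about 1.5 cm soil. Plants raised in a greenhouse at 25° C. to 30° C. for foliar application.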

Digitaria ciliaris = experiment: Test Example 4: herbicidal effect by soil treatment (symbol F); conditions: application herbicide amount 320 g/ha
In short: as §2

Lolium multiflorum Lam. [2] = experiment: Test Example 4: herbicidal effect by soil treatment (symbol K); conditions: application herbicide amount 320 g/ha
In short: as §2

Alopecurus myosuroides [3] = experiment: Test Example 4: herbicidal effect by soil treatment (symbol J); conditions: application herbicide amount 320 g/ha
In short: as §2

Lolium multiflorum Lam. [4] = experiment: Test Example 5: herbicidal effect by foliage application, plastic box (symbol K); conditions: 320 g/ha, 3 weeks after application
In short: (§4)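 Sowing in sterilized diluvial soil, 14 days' greenhouse growth at 25° C. to 30° C., then uniform small-sprayer foliar application of aqueous emulsion dilution; plants scored three weeks afterwards.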

[5] = test system: Echinochloa oryzacola Vasing.; experiment: Test Example 2: herbicidal activity, application during weed generation in submerged conditions (symbol A); conditions: Table 23; application herbicide amount 320 g/ha; grade 0-5 by criteria of Test Example 1
In short: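 Seeds sown in flooded alluvial soil (4 cm water) were grown in a 25-30° C greenhouse. At the one- to two-leaf stage, diluted emulsion of compound was applied to the water surface at a predetermined rate. Effect was scored 3 weeks later.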

rice = experiment: Test Example 4: effect on crop by soil treatment (symbol b); conditions: application herbicide amount 320 g/ha
In short: as §1

wheat [6] = experiment: Test Example 5: effect on crop by foliage application, plastic box (symbol e); conditions: 320 g/ha, 3 weeks after application
In short: as §3

[7] = test system: directly sowed rice plant; experiment: Test Example 3: effect on crop by foliage application, Wagner pot (symbol b); conditions: application herbicide amount 320 g/ha
In short: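 Steps: fill a 1/10000-are Wagner pot with alluvial soil; add water and mix to submerge at 0.1–0.5 cm depth; sow rice plus Echinochloa crus-galli var. crus-galli, Leptochloa chinensis and Cyperus difformis; grow in a 25–30 °C greenhouse.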

Alopecurus myosuroides [8] = experiment: Test Example 5: herbicidal effect by foliage application, plastic box (symbol J); conditions: 320 g/ha, 3 weeks after application
In short: as §4

For `CC(=O)CC1CC(O)=C(c2c(C)cc(Br)cc2C)C1=O` (stereo not drawn) [7-002], which “Effect on crop grade, f: beet” value (beet) is on record?
The value was 0 (Herbicidal ratio of 5% or lower (almost no effect)).

What about the “Effect on crop grade, c: corn” value (corn) of the same compound?
Its value is 0 (Herbicidal ratio of 5% or lower (almost no effect)).

And the “Herbicidal effect grade, P: Stellaria media” value (Stellaria media)?
Its value is 0 (Herbicidal ratio of 5% or lower (almost no effect)).

What about the “Effect on crop grade, g: rapeseed” value (rapeseed) of the same compound?
The value was 0 (Herbicidal ratio of 5% or lower (almost no effect)).

What about the “Effect on crop grade, e: wheat” value (wheat [1]) of the same compound?
The value was 0 (Herbicidal ratio of 5% or lower (almost no effect)).

What about the “b: directly sowed rice plant, effect on crop (criteria of Test Example 1)” value (rice plant) of the same compound?
Its value is 5 (Herbicidal ratio of 90% or more (almost completely withered)).

And the “Herbicidal effect grade, F: Digitaria ciliaris” value (Digitaria ciliaris)?
Its value is 5 (Herbicidal ratio of 90% or more (almost completely withered)).

What about the “Herbicidal effect grade, K: Lolium multiflorum Lam.” value (Lolium multiflorum Lam. [2]) of the same compound?
The value was 5 (Herbicidal ratio of 90% or more (almost completely withered)).

What about the “Herbicidal effect grade, J: Alopecurus myosuroides” value (Alopecurus myosuroides [3]) of the same compound?
Its value is 3 (Herbicidal ratio of 40% or higher and lower than 70%).

And the “K: Lolium multiflorum Lam., herbicidal effect (criteria of Test Example 1)” value (Lolium multiflorum Lam. [4])?
Its value is 5 (Herbicidal ratio of 90% or more (almost completely withered)).

And the “Herbicidal effect grade, A: Echinochloa oryzacola Vasing.” value [5]?
The value was 0 (Herbicidal ratio of 5% or lower (almost no effect)).

What about the “Effect on crop grade, b: directly sowed rice plant” value (rice) of the same compound?
The value was 5 (Herbicidal ratio of 90% or more (almost completely withered)).

And the “e: wheat, effect on crop (criteria of Test Example 1)” value (wheat [6])?
The value was 0 (Herbicidal ratio of 5% or lower (almost no effect)).

What about the “effect on crop b (directly sowed rice plant), grade 0-5” value [7] of the same compound?
Its value is 5 (Herbicidal ratio of 90% or more (almost completely withered)).

And the “J: Alopecurus myosuroides, herbicidal effect (criteria of Test Example 1)” value (Alopecurus myosuroides [8])?
The value was 4 (Herbicidal ratio of 70% or higher and lower than 90%).

What does the source list for `CON=C(C)CC1CC(O)=C(c2c(C)cc(-c3ccc(F)cc3)cc2C)C1=O` (mixture of isomers) [6-058]?
f: beet, effect on crop grade (beet): 4 (Herbicidal ratio of 70% or higher and lower than 90%); c: corn, effect on crop grade (corn): 5 (Herbicidal ratio of 90% or more (almost completely withered)); P: Stellaria media, herbicidal effect grade (Stellaria media): 5 (Herbicidal ratio of 90% or more (almost completely withered)); g: rapeseed, effect on crop grade (rapeseed): 5 (Herbicidal ratio of 90% or more (almost completely withered)); e: wheat, effect on crop grade (wheat [1]): 5 (Herbicidal ratio of 90% or more (almost completely withered)); b: directly sowed rice plant, effect on crop (criteria of Test Example 1) (rice plant): 5 (Herbicidal ratio of 90% or more (almost completely withered)); F: Digitaria ciliaris, herbicidal effect grade (Digitaria ciliaris): 5 (Herbicidal ratio of 90% or more (almost completely withered)); K: Lolium multiflorum Lam., herbicidal effect grade (Lolium multiflorum Lam. [2]): 5 (Herbicidal ratio of 90% or more (almost completely withered)); J: Alopecurus myosuroides, herbicidal effect grade (Alopecurus myosuroides [3]): 5 (Herbicidal ratio of 90% or more (almost completely withered)); K: Lolium multiflorum Lam., herbicidal effect (criteria of Test Example 1) (Lolium multiflorum Lam. [4]): 5 (Herbicidal ratio of 90% or more (almost completely withered)); Herbicidal effect grade, A: Echinochloa oryzacola Vasing. [5]: 5 (Herbicidal ratio of 90% or more (almost completely withered)); b: directly sowed rice plant, effect on crop grade (rice): 5 (Herbicidal ratio of 90% or more (almost completely withered)); e: wheat, effect on crop (criteria of Test Example 1) (wheat [6]): 5 (Herbicidal ratio of 90% or more (almost completely withered)); effect on crop b (directly sowed rice plant), grade 0-5 [7]: 5 (Herbicidal ratio of 90% or more (almost completely withered)); J: Alopecurus myosuroides, herbicidal effect (criteria of Test Example 1) (Alopecurus myosuroides [8]): 5 (Herbicidal ratio of 90% or more (almost completely withered))
